# In ChEMBL document CHEMBL3826954, “Structure-Guided Discovery of Selective Antagonists for the Chromodomain of Polycomb Repressive Protein CBX7” (ACS Med Chem Lett, 2016):
# The source made the active and inactive calls. The calls are words filed in the database; no cut-off is given here.
# Assays:
# [1] = target: T1, Chromobox protein homolog 7 (Homo sapiens) (UniProt O95931); assay: Antagonist activity at CBX7ChD (7 to 66 residues) expressed in human PC3 cells assessed as transcriptional derepression of p16INK4a at 50 to 250 uM after 12 hrs by qPCR method; type: cell-based; conditions: PC-3
# T1 sequence (whole entry): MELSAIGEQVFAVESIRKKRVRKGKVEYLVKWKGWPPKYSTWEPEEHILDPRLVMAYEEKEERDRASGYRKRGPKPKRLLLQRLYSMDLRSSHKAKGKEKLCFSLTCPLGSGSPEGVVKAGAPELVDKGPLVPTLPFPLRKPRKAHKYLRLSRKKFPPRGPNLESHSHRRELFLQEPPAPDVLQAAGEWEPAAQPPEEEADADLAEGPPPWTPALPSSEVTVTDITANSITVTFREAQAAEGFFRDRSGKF
# [2] = target: T2, Chromobox protein homolog 7 (Homo sapiens, UniProt O95931); assay: Binding affinity to CBX7ChD (7 to 66 residues) (unknown origin) expressed in RIPL-BL21 (DE3)-CodonPlus competent cells in presence of FITC-labeled SETDB1-K1170me3/H3K27me3/ANRIL-LoopC RNA by fluorescence anisotropy assay
# T2 sequence (O95931 whole entry): T1 sequence (whole entry)
# [3] = target: T2, Chromobox protein homolog 7; assay: Binding affinity to CBX7ChD (7 to 66 residues) (unknown origin) expressed in RIPL-BL21 (DE3)-CodonPlus competent cells assessed as compound/protein/FITC-labeled loop C of ANRIL ternary complex formation by fluorescence anisotropy assay
# [4] = target: T3, Chromobox protein homolog 7 (Mus musculus) (UniProt Q8VDS3); assay: Antagonist activity at CBX7ChD (7 to 66 residues) expressed in mouse embryonic stem cells assessed as reduction of protein occupancy at Hoxd3 gene locus at 0.5 uM after 18 to 36 hrs by ChIP analysis; type: cell-based
# T3 sequence (whole entry): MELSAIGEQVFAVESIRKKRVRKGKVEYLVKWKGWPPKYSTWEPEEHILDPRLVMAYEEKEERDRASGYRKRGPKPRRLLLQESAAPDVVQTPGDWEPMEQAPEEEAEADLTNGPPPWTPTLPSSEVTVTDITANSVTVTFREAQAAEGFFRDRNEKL
# [5] = Induction of transcriptional derepression of HIF1a in human PC3 cells at 1 to 5 uM after 12 hrs by qPCR method; type: cell-based; conditions: pc-3, 12 h
# [6] = target: T1, Chromobox protein homolog 7 (Homo sapiens); assay: Antagonist activity at CBX7ChD (7 to 66 residues) expressed in human PC3 cells assessed as transcriptional derepression of p16INK4a after 12 hrs by qPCR method; type: cell-based; conditions: PC-3
# [7] = target: T3, Chromobox protein homolog 7 (Mus musculus); assay: Antagonist activity at CBX7ChD (7 to 66 residues) expressed in mouse embryonic stem cells assessed as transcriptional derepression of Hoxd3 at 0.5 uM after 18 to 36 hrs by qPCR method; type: cell-based
# [8] = target: T2, Chromobox protein homolog 7; assay: Binding affinity to 15N-labeled CBX7ChD (7 to 66 residues) (unknown origin) expressed in RIPL-BL21 (DE3)-CodonPlus competent cells by HSQC/NMR titration
# [9] = target: T3, Chromobox protein homolog 7 (Mus musculus); assay: Antagonist activity at CBX7ChD (7 to 66 residues) expressed in mouse embryonic stem cells assessed as transcriptional derepression of noggin at 0.5 uM after 18 to 36 hrs by qPCR method; type: cell-based
# [10] = Induction of transcriptional derepression of Gapdh in mouse embryonic stem cells at 0.5 uM after 18 to 36 hrs by qPCR method; type: cell-based; conditions: embryonic stem cell
# [11] = target: T3, Chromobox protein homolog 7 (Mus musculus); assay: Antagonist activity at CBX7ChD (7 to 66 residues) expressed in mouse embryoid bodies assessed as transcriptional derepression of p16INK4a mRNA levels at 1 to 2 uM after 12 hrs by qPCR method
# [12] = target: T1, Chromobox protein homolog 7 (Homo sapiens); assay: Binding affinity to CBX7ChD (7 to 66 residues) (unknown origin) expressed in RIPL-BL21 (DE3)-CodonPlus competent cells assessed as enhancement of FITC-ANRIL-loopC/FITC-16mer-RNA binding to protein by fluorescence anisotropy assay
# [13] = target: T3, Chromobox protein homolog 7 (Mus musculus); assay: Antagonist activity at CBX7ChD (7 to 66 residues) expressed in mouse embryonic stem cells assessed as p16INK4a expression levels at 1 to 2 uM after 12 hrs by Western blot analysis; type: cell-based
Structure (SMILES),inhibition [1],Ki [2],further results
CCS(=O)(=O)Nc1ccc(OCC(=O)N2CCN(C(=O)c3cccc(OC)c3OC)CC2)cc1C,inactive,25 µM,–
CCS(=O)(=O)Nc1c(C)cc(OCC(=O)N2CCN(C(=O)c3cccc(OC)c3OC)CC2)cc1C,inactive,10 µM,–
COc1cccc(C(=O)N2CCN(C(=O)COc3ccc(NC(C)=O)c(C)c3)CC2)c1OC,inactive,–,–
COc1cccc(C(=O)N2CCN(C(=O)COc3ccc(NC(N)=O)c(C)c3)CC2)c1OC,–,10 µM,–
COc1cccc(C(=O)N2CCN(C(=O)COc3cccc(C)c3)CC2)c1OC,inactive,33.1 µM,Kd [3]: 125 µM
Cc1ccccc1Cn1c(=N)n(CC(O)c2ccc(Cl)c(Cl)c2)c2ccccc21 (stereo not given),–,–,inhibition [4]: Active; Activity [5]: Non-toxic; Kd [3]: 23.8 µM; inhibition [6]: Dose-dependent effect; inhibition [7]: Active; Kd [8]: 500 µM; inhibition [9]: Active; Activity [10]: Non-toxic; inhibition [11]: Active; Activity [12]: Dose-dependent effect; inhibition [13]: Active

# More lines, main results first:
inhibition [1],Ki [2],Structure (SMILES),further results
inactive,–,COc1cccc(C(=O)N2CCN(C(=O)COc3cc(C)c(N)c(C(C)C)c3)CC2)c1OC,–
inactive,–,COc1cccc(C(=O)N2CCN(C(=O)COc3cc(C)c(NS(C)(=O)=O)c(C)c3)CC2)c1OC,–
–,4.8 µM,COc1cccc(C(=O)N2CCN(C(=O)COc3cc(C)c(NC(N)=O)c(C)c3)CC2)c1OC,–
–,16.9 µM,COc1cccc(C(=O)N2CCN(C(=O)COc3cc(C)c(N)c(C)c3)CC2)c1OC,–
–,39.3 µM,COc1cccc(C(=O)N2CCN(C(=O)COc3ccc(N)c(C)c3)CC2)c1OC,–
